# Laboratory results reported in patent US10238658B2, “1-pyrazolyl-3-(4-((2-anilinopyrimidin-4-yl) oxy) napththalen-1-yl) ureas as p38 MAP kinase inhibitors” (Respivert Limited, priority 2011, dated 2019).
# Key:
# Type in all cases: cell-based
# IL-8 [1] = test: Rhinovirus-induced IL-8 release in BEAS2B cells; details: Homo sapiens, BEAS-2B, at 0.04 μg/mL; read-out: HRV IL-8 (BEAS2B) % inhibition
# Method: Human rhinovirus RV16 was obtained from the American Type Culture Collection (Manassas, Va.). Viral stocks were generated by infecting Hela cells with HRV until 80% of the cells were cytopathic.
# BEAS2B cells were infected with HRV at an MOI of 5 and incubated for 2 hr at 33° C. with gentle shaking for to promote absorption. The cells were then washed with PBS, fresh media added and the cells were incubated for a further 72 hr. The supernatant was collected for assay of IL-8 concentrations using a Duoset ELISA development kit (R&D systems, Minneapolis, Minn.). […]
# HRV16 = HRV16 induced CPE in MRC5 cells; details: Human rhinovirus sp., HRV16, MRC5, at 0.04 μg/mL; read-out: HRV CPE (MRC5) % inhibition
# Method: The supernatants were aspirated, and then fresh media added followed by incubation for 4 days. Where appropriate, cells were pre-incubated with compound or DMSO for 2 hr, and the compounds and DMSO added again after washout of the virus.
# The percentage inhibition for each well was calculated. The IC50 value was calculated from the concentration-response curve generated by the serial dilutions of the test compounds.
# TNFα [2] = test: LPS-induced TNFα release in THP-1 cells; details: Homo sapiens, THP-1, THP1 cells
# Method: THP-1 cells, a human monocytic cell line, were stimulated with 3 μg/mL of LPS (from E. Coli; 0111:B4, Sigma) for 4 hr and the supernatant collected for determination of the TNFα concentration by sandwich ELISA (Duo-set, R&D systems). The inhibition of TNFα production was calculated at each concentration by comparison with vehicle control.
# IL-8 [3] = test: LPS-induced IL-8 release in d-U937 cells; details: Homo sapiens, dU937, dU937 cells
# Method: (§1) U937 cells, a human monocytic cell line, were differentiated into macrophage-type cells by incubation with PMA (100 ng/mL) for 48 to 72 hr. Cells were pre-incubated with final concentrations of test compound for 2 hr and were then stimulated with LPS (0.1 μg/mL; from E. Coli: O111:B4, Sigma) for 4 hr. The supernatant was collected for determination of TNFα and IL-8 concentrations by sandwich ELISA (Duo-set, R&D systems). […] The relative 50% effective concentration (REC50) was determined from the resultant concentration-response curve. The inhibition of IL-8 production was calculated at each concentration of test compound by comparison with vehicle control.
# TNFα [4] = test: LPS-induced TNFα release in d-U937 cells; details: Homo sapiens, dU937, dU937 cells; relative to 10 μg/mL BIRB796; read-out: LPS Induced Release TNFα REC50 (dU937)
# Method: as §1
# PBMC = test: Cell mitosis assay; details: Homo sapiens
# Method: Peripheral blood mononucleocytes (PBMCs) from healthy subjects were separated from whole blood (Quintiles, London, UK) using a density gradient (Histopaque®-1077, Sigma-Aldrich, Poole, UK). The PBMCs (3 million cells per sample) were subsequently treated with 2% PHA (Sigma-Aldrich, Poole, UK) for 48 hr, followed by a 20 hr exposure to varying concentrations of test compounds. At 2 hr before collection, PBMCs were treated with demecolcine (0.1 μg/mL; Invitrogen, Paisley, UK,) to arrest cells in metaphase. To observe mitotic cells, PBMCs were permeabilised and fixed by adding Intraprep (50 μL; Beckman Coulter, France), and stained with anti-phospho-histone 3 ([…]; #9701; Cell Signalling, Danvers, Mass.) and propidium iodide (1 mg/mL; Sigma-Aldrich, Poole, UK,) as previously described (Muehlbauer P. A. and Schuler M. J., Mutation Research, 2003, 537:117-130). Fluorescence was observed using an ATTUNE flow cytometer (Invitrogen, Paisley, UK), gating for lymphocytes.
Compound,IC50 (TNFα [2]),IC50 (IL-8 [3]),EC50 (TNFα [4]),inhibition at 0.04 µg/mL (IL-8 [1]),inhibition at 0.04 µg/mL (HRV16),inhibition at 1 µg/mL (PBMC; read-out: Mitosis Assay % inhibition in PBMC Cells at concn 1 μg/mL),inhibition at 5 µg/mL (PBMC; read-out: Mitosis Assay % inhibition in PBMC Cells at concn 5 μg/mL)
"Cc1ccc(-n2nc(C(C)(C)C)cc2NC(=O)Nc2ccc(Oc3ccnc(Nc4cc(C)ccc4C)n3)c3ccccc23)cc1 [Example 10, 1-(3-(tert-butyl)-1-(p-tolyl)-1H-pyrazol-5-yl)-3-(4-((2-((2,5-dimethylphenyl)amino)pyrimidin-4-yl)oxy)naphthalen-1-yl)urea]",45 nM,15 nM,15 nM,100%,100%,,
"Cc1ccc(-n2nc(C(C)(C)C)cc2NC(=O)Nc2ccc(Oc3ccnc(Nc4ccccc4F)n3)c3ccccc23)cc1 [Example 4, 1-(3-(tert-butyl)-1-(p-tolyl)-1H-pyrazol-5-yl)-3-(4-((2-((2-fluorophenyl)amino)pyrimidin-4-yl)oxy)naphthalen-1-yl)urea]",4.6 nM,2.3 nM,3.1 nM,100%,44%,,
"COCC(=O)Nc1cc(Oc2ccc(NC(=O)Nc3cc(C(C)(C)C)nn3-c3ccc(C)cc3)c3ccccc23)ccn1 [Reference Compound, N-(4-(4-(3-(3-tert-butyl-1-p-tolyl-1H-pyrazol-5-yl)ureido)naphthalen-1-yloxy)pyridin-2-yl)-2-methoxyacetamide, reference compound]",,,0.13 nM,,,,
"Cc1ccc(-n2nc(C(C)(C)C)cc2NC(=O)Nc2ccc(Oc3ccnc(Nc4ccccc4Cl)n3)c3ccccc23)cc1 [Example 6, 1-(3-(tert-butyl)-1-(p-tolyl)-1H-pyrazol-5-yl)-3-(4-((2-((2-chlorophenyl)amino)pyrimidin-4-yl)oxy)naphthalen-1-yl)urea]",225 nM,15 nM,7 nM,,,,
"CC(C)(C)c1cc(NC(=O)Nc2ccc(Oc3ccnc(Nc4ccccc4)n3)c3ccccc23)n(-c2ccc(O)cc2)n1 [Example 3, 1-(3-(tert-butyl)-1-(4-hydroxyphenyl)-1H-pyrazol-5-yl)-3-(4-((2-(phenylamino)pyrimidin-4-yl)oxy)naphthalen-1-yl)urea]",1.2 nM,1.8 nM,1.7 nM,100%,100%,,
"Cc1ccc(-n2nc(C(C)(C)C)cc2NC(=O)Nc2ccc(Oc3ccnc(Nc4cccc(C)c4)n3)c3ccccc23)cc1 [Example 12, 1-(3-(tert-butyl)-1-(p-tolyl)-1H-pyrazol-5-yl)-3-(4-((2-(m-tolylamino)pyrimidin-4-yl)oxy)naphthalen-1-yl)urea]",30 nM,2.4 nM,2 nM,100%,100%,,
"Cc1ccc(Nc2nccc(Oc3ccc(NC(=O)Nc4cc(C(C)(C)C)nn4-c4ccc(C)cc4)c4ccccc34)n2)cc1 [Example 11, 1-(3-(tert-butyl)-1-(p-tolyl)-1H-pyrazol-5-yl)-3-(4-((2-(p-tolylamino)pyrimidin-4-yl)oxy)naphthalen-1-yl)urea]",21 nM,> 1680 nM,35 nM,100%,100%,,

# Now from value to compound, other results behind:
IC50 (TNFα [2]),IC50 (IL-8 [3]),EC50 (TNFα [4]),Compound,inhibition at 0.04 µg/mL (IL-8 [1]),inhibition at 0.04 µg/mL (HRV16),inhibition at 1 µg/mL (PBMC; read-out: Mitosis Assay % inhibition in PBMC Cells at concn 1 μg/mL),inhibition at 5 µg/mL (PBMC; read-out: Mitosis Assay % inhibition in PBMC Cells at concn 5 μg/mL)
1.6 nM,3 nM,1 nM,"Cc1ccc(-n2nc(C(C)(C)C)cc2NC(=O)Nc2ccc(Oc3ccnc(Nc4ccc(O)cc4F)n3)c3ccccc23)cc1 [Example 30, 1-(3-(tert-butyl)-1-(p-tolyl)-1H-pyrazol-5-yl)-3-(4-((2-((2-fluoro-4-hydroxyphenyl)amino)pyrimidin-4-yl)oxy)naphthalen-1-yl)urea]",100%,≤ 0%,,
121 nM,23 nM,18 nM,"Cc1ccc(-n2nc(C(C)(C)C)cc2NC(=O)Nc2ccc(Oc3ccnc(Nc4ccccc4C(C)C)n3)c3ccccc23)cc1 [Example 20, 1-(3-(tert-butyl)-1-(p-tolyl)-1H-pyrazol-5-yl)-3-(4-((2-((2-isopropylphenyl)amino)pyrimidin-4-yl)oxy)naphthalen-1-yl)urea]",100%,≤ 0%,,
3 nM,2.3 nM,2.2 nM,"Cc1ccc(-n2nc(C(C)(C)C)cc2NC(=O)Nc2ccc(Oc3ccnc(Nc4cccc(F)c4)n3)c3ccccc23)cc1 [Example 15, 1-(3-(tert-butyl)-1-(p-tolyl)-1H-pyrazol-5-yl)-3-(4-((2-((3-fluorophenyl)amino)pyrimidin-4-yl)oxy)naphthalen-1-yl)urea]",100%,100%,,
0.4 nM,18 nM,14 nM,"COc1ccc(Nc2nccc(Oc3ccc(NC(=O)Nc4cc(C(C)(C)C)nn4-c4ccc(C)cc4)c4ccccc34)n2)cc1Cl [Example 28, 1-(3-(tert-butyl)-1-(p-tolyl)-1H-pyrazol-5-yl)-3-(4-((2-((3-chloro-4-methoxyphenyl)amino)pyrimidin-4-yl)oxy)naphthalen-1-yl)urea]",100%,54%,,
4.3 nM,2.1 nM,2 nM,"COc1ccc(Nc2nccc(Oc3ccc(NC(=O)Nc4cc(C(C)(C)C)nn4-c4ccc(C)cc4)c4ccccc34)n2)cc1 [Example 17, 1-(3-(tert-butyl)-1-(p-tolyl)-1H-pyrazol-5-yl)-3-(4-((2-((4-methoxyphenyl)amino)pyrimidin-4-yl)oxy)naphthalen-1-yl)urea]",100%,≤ 0%,,
1600 nM,> 1620 nM,> 1620 nM,"Cc1ccc(-n2nc(C(C)(C)C)cc2NC(=O)Nc2ccc(Oc3ccnc(Nc4cccc(Cl)c4)n3)c3ccccc23)cc1 [Example 13, 1-(3-(tert-butyl)-1-(p-tolyl)-1H-pyrazol-5-yl)-3-(4-((2-((3-chlorophenyl)amino)pyrimidin-4-yl)oxy)naphthalen-1-yl)urea]",100%,100%,,
0.4 nM,1.5 nM,0.84 nM,"COc1cc(Nc2nccc(Oc3ccc(NC(=O)Nc4cc(C(C)(C)C)nn4-c4ccc(C)cc4)c4ccccc34)n2)ccc1O [Example 25, 1-(3-(tert-butyl)-1-(p-tolyl)-1H-pyrazol-5-yl)-3-(4-((2-((4-hydroxy-3-methoxyphenyl)amino)pyrimidin-4-yl)oxy)naphthalen-1-yl)urea]",100%,,29.1%,63.5%
2.7 nM,1.6 nM,2 nM,"COc1cccc(Nc2nccc(Oc3ccc(NC(=O)Nc4cc(C(C)(C)C)nn4-c4ccc(C)cc4)c4ccccc34)n2)c1 [Example 14, 1-(3-(tert-butyl)-1-(p-tolyl)-1H-pyrazol-5-yl)-3-(4-((2-((3-methoxyphenyl)amino)pyrimidin-4-yl)oxy)naphthalen-1-yl)urea]",100%,100%,,
6.1 nM,32 nM,16 nM,"Cc1ccc(-n2nc(C(C)(C)C)cc2NC(=O)Nc2ccc(Oc3ccnc(Nc4ccc(O)cc4Cl)n3)c3ccccc23)cc1 [Example 31, 1-(3-(tert-butyl)-1-(p-tolyl)-1H-pyrazol-5-yl)-3-(4-((2-((2-chloro-4-hydroxyphenyl)amino)pyrimidin-4-yl)oxy)naphthalen-1-yl)urea]",100%,≤ 0%,,
